Positions count from the first letter of the chain named. Read-outs that look alike come from different tables or passages of the source.
Assays:
[1] = target: T1, hAR (human androgen receptor, baculovirus/Sf9 generated extracts) (Homo sapiens, UniProt P10275); assay: AR Binding Assay (competitive binding with 3H-DHT tracer); details: 1 nM 3H-DHT, one hour at 4° C., mean of multiple tests
T1 construct: made in house; host or cells: baculovirus/Sf9 insect cells (crude extract)
T1 sequence (P10275 1-920): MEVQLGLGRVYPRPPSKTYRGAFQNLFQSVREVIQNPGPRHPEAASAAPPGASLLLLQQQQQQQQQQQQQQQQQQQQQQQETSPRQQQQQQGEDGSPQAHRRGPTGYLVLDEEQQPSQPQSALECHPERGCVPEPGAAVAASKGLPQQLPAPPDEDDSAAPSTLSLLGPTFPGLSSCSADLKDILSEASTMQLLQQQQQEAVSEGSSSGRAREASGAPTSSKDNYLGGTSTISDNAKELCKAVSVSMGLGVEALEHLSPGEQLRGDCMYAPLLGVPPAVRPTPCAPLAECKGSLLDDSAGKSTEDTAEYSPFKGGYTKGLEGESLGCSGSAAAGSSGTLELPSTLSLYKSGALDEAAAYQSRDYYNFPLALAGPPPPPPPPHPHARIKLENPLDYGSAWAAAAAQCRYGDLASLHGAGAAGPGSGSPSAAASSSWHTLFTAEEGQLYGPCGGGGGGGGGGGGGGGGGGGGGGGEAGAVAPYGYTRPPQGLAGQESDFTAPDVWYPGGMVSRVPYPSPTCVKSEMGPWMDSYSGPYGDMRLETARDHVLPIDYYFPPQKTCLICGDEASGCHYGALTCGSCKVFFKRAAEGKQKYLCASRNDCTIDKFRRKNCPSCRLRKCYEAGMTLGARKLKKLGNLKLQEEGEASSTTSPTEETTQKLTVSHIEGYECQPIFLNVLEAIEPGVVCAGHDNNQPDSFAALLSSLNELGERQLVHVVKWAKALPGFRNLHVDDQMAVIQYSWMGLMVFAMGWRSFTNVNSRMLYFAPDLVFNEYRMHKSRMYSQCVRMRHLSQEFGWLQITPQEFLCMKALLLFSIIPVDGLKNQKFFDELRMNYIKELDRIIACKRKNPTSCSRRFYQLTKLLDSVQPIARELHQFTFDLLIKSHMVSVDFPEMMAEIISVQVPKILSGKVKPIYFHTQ
Description: The compounds of Formula I have affinity for the androgen receptor. […] The description below describes how the assay was carried out.
Competitive binding analysis was performed on baculovirus/Sf9 generated hAR extracts in the presence or absence of different concentrations of test agent and a fixed concentration of ^3H-dihydrotestosterone (^3H-DHT) as tracer. This binding assay method is a modification of a protocol previously described (Liao S., et. al., J. Steroid Biochem., 20:11-17, 1984). Briefly, progressively decreasing concentrations of compounds are incubated in the presence of hAR extract (Chang et al., P.N.A.S., Vol. 89, pp. 5546-5950, 1992), hydroxylapatite, and 1 nM ^3H-DHT for one hour at 4° C. Subsequently, the binding reactions are washed three times to completely remove excess unbound ^3H-DHT. hAR bound ^3H-DHT levels are determined in the presence of compounds (i.e. competitive binding) and compared to levels bound when no competitor is present (i.e. maximum binding). Compound binding affinity to the hAR is expressed as the concentration of compound at which one half of the maximum binding is inhibited. Table II below provides the results that were obtained for selected compounds (reported data is the mean of multiple tests as shown below).

[2] = target: T2, androgen receptor in MDA-MB453-MMTV clone 54-19 cells (Homo sapiens, UniProt P10275); assay: AR Antagonist Cell Assay (MMTV-luciferase reporter, DHT-induced); assay type: cell-based; details: MDA-MB453-MMTV clone 54-19, 100 pM DHT, 17 hr; mean of multiple tests
T2 sequence (P10275 1-920 Q868H): T1 sequence (P10275 1-920) with Q868H
Description: The compounds ability to antagonize the effects of androgen on the androgen receptor were determined in a whole cell assay as described immediately below.
Cell line: MDA-MB453-MMTV clone 54-19. This cell line is a stable transfected cell line with MDA-MB453 cell background (a human breast tumor cell line expressing androgen receptor). A MMTV minimal promoter containing ARE was first cloned in front of a firefly luciferase reporter gene. Then the cascade was cloned into transfection vector pUV120puro. Electroporation method was used for transfecting MDA-MB-453 cell. Puromycin resistant stable cell line was selected.
Culture medium: DMEM (high glucose, Gibco cat #: 11960-044), 10% FBS, and 1% L-glutamine
Plating medium: DMEM (phenol red free), 10% charcoal treated HyClone serum, 1% L-glutamine
Assay medium: DMEM (phenol red free), 1% charcoal treated HyClone serum, 1% L-glutamine, and 1% penicillin/streptomycin
3× luciferase buffer: 2% beta-mercaptoethanol, 0.6% ATP, 0.0135% luciferine in cell lysis buffer
Cells are maintained in culture medium, splitting cells when they reach 80-90% confluence. To test compounds, 10,000 cells/well are plated to opaque 96 cell culture plate in 100 ul/well plating medium, culture for overnight at 37° C. in cell culture incubator. Carefully remove plating medium, then add 80 ul/well of pre-warmed assay medium, add 10 ul/well testing compound (final concentration at) 1000 nM, 200 nM, 40 nM, 8 nM, 1.6 nM, and 0.32 nM), incubate at 37° C. for 30 minutes. Add 10 ul/well freshly prepared DHT (final concentration at 100 pM) to each well, incubate at 37° C. for 17 hr (overnight). Add 50 ul/well 3× luciferase buffer, incubate at room temperature for 5 minutes, then count on Luminometer. The fold induction over background by 100 pM DHT in the absence of testing compounds is standardized as 100% and experimental result is expressed as percentage of inhibition by testing compounds.
The results are reported as the mean of multiple tests as described below (the numbers of tests are indicated in the footnote). ND denotes that the compound was not tested.

[3] = hAR extract, read-out: AR Binding IC50

Compound CC(Oc1ccc(C#N)c(C(F)(F)F)c1)c1ccccc1F (centres unmarked) [Example 24, 4-[1-(2-Fluoro-phenyl)-ethoxy]-2-trifluoromethyl-benzonitrile] has an IC50 ([1]; AR Binding IC50, hAR extract) of 79 nM and an IC50 [2] of 826 nM.
COc1cc(OCCc2cccc(F)c2)ccc1C#N [Example 71B, 4-[2-(3-Fluoro-phenyl)-ethoxy]-2-methoxy-benzonitrile] showed an IC50 [1, 3] of 155 nM and an IC50 [2] of 41.4 nM.
With CCOc1ccccc1COc1ccc(C#N)c(Cl)c1 [Example 68, 2-Chloro-4-(2-ethoxy-benzyloxy)-benzonitrile] the IC50 [1, 3] was 213 nM and the IC50 [2] was over 1000 nM.
CCC(Oc1ccc(C#N)c(C(F)(F)F)c1)c1cccc(O)c1 (racemic) [Example 11, 4-[1-(3-Hydroxyphenyl)propoxy]-2-(trifluoromethyl)benzonitrile] was tested, and the IC50 ([1]; AR Binding IC50, hAR extract) was 11 nM and the IC50 [2] was over 1000 nM.
Cc1ccccc1C(C)Oc1ccc(C#N)c(Cl)c1 (centres unmarked) [Example 62] was tested, and the IC50 [1, 3] was 52 nM and the IC50 [2] was 464 nM.
In the case of CCC(Oc1ccc(C#N)c(C(F)(F)F)c1)c1cccc(O)c1 (single isomer, unassigned; (+)) [Example 12, (+)4-[1-(3-Hydroxyphenyl)propoxy]-2-(trifluoromethyl)benzonitrile], the IC50 ([1]; AR Binding IC50, hAR extract) is reported as 19 nM and the IC50 [2] is reported as over 1000 nM.
COc1ccccc1C(C)Oc1ccc(C#N)c(C(F)(F)F)c1 (centres unmarked) [Example 5, 4-[1-(2-Methoxy-phenyl)-ethoxy]-2-t-trifluoromethyl-benzonitrile] showed an IC50 [1, 3] of 312 nM and an IC50 [2] of over 1000 nM.
In the case of CC(C)CC(Oc1ccc(C#N)c(C(F)(F)F)c1)c1cccc(O)c1 (racemic) [Example 20, 4-[1-(3-Hydroxyphenyl)-3-methylbutoxy]-2-(trifluoromethyl)benzonitrile], the IC50 ([1]; AR Binding IC50, hAR extract) is reported as 183 nM and the IC50 [2] is reported as 40 nM.
CC(Oc1ccc(C#N)c(C(F)(F)F)c1)c1ccc(F)cc1 (centres unmarked) [Example 25, 4-[1-(4-Fluoro-phenyl)-ethoxy]-2-trifluoromethyl-benzonitrile] showed an IC50 ([1]; AR Binding IC50, hAR extract) of 137 nM and an IC50 [2] of 92 nM.
CC(Oc1ccc(C#N)c(C(F)(F)F)c1)c1ccccc1C(F)(F)F (centres unmarked) [Example 31, 2-Trifluoromethyl-4-[1-(2-trifluoromethyl-phenyl)-ethoxy]-benzonitrile] gave an IC50 [1, 3] of 146 nM and an IC50 [2] of 398 nM.
Work on CCC(C)(Oc1ccc(C#N)c(Cl)c1)c1ccccc1 (centres unmarked) [Example 58, 2-Chloro-4-(1-methyl-1-phenyl-propoxy)-benzonitrile] yielded an IC50 [1, 3] of 162 nM and an IC50 [2] of over 1000 nM.
Compound CC(Oc1ccc(C#N)c(C(F)(F)F)c1)c1cncc(O)c1 (centres unmarked) [Example 73, 4-[1-(5-Hydroxypyridin-3-yl)ethoxy]-2-(trifluoromethyl)benzonitrile] has an IC50 [1, 3] of 110 nM and an IC50 [2] of 70 nM.
COc1cccc(C(C)Oc2ccc(C#N)c(C(F)(F)F)c2)c1 (centres unmarked) [Example 4, 4-[1-(3-Methoxy-phenyl)-ethoxy]-2-t-trifluoromethyl-benzonitrile] showed an IC50 [1, 3] of 78 nM and an IC50 [2] of over 1000 nM.
With CC(Oc1ccc(C#N)c(C(F)(F)F)c1)c1ccccn1 (racemic) [Example 35, 4-(1-Pyridin-2-yl-ethoxy)-2-trifluoromethyl-benzonitrile] the IC50 ([1]; AR Binding IC50, hAR extract) was 180 nM and the IC50 [2] was 254 nM.
CC(Oc1ccc(C#N)c(Cl)c1)c1ccccc1 (centres unmarked) [Example 71, 2-Chloro-4-(1-phenyl-ethoxy)-benzonitrile] showed an IC50 ([1]; AR Binding IC50, hAR extract) of 13 nM and an IC50 [2] of 8 nM.
Compound N#Cc1ccc(OCc2cccc(O)c2)c(Cl)c1 [Example 41, 3-Chloro-4-(3-hydroxy-benzyloxy)-benzonitrile] has an IC50 [1, 3] of 76 nM and an IC50 [2] of 286 nM.
Work on CC(Oc1ccc(C#N)c(C(F)(F)F)c1)c1cccc(C#N)c1 (single isomer, unassigned) [Example 78, 4-[1-(3-Cyano-phenyl)-ethoxy]-2-trifluoromethyl-benzonitrile] yielded an IC50 ([1]; AR Binding IC50, hAR extract) of 37 nM and an IC50 [2] of 47 nM.
CCC(Oc1ccc(C#N)c(C(F)(F)F)c1)c1cncc(O)c1 (centres unmarked) [Example 94, 4-[1-(5-Hydroxy-pyridin-3-yl)-propoxy]-2-trifluoromethyl-benzonitrile] gave an IC50 ([1]; AR Binding IC50, hAR extract) of 75 nM and an IC50 [2] of 202 nM.
COc1cncc(C(C)Oc2ccc(C#N)c(C(F)(F)F)c2)c1 (centres unmarked) [Example 72, 4-[1-(5-Methoxypyridin-3-yl)ethoxy]-2-(trifluoromethyl)benzonitrile] was tested, and the IC50 [1, 3] was 203 nM and the IC50 [2] was 441 nM.
N#Cc1ccc(OCC2COc3ccccc3O2)cc1Cl (centres unmarked) [Example 69, 2-Chloro-4-(2,3-dihydro-benzo[1,4]dioxin-2-ylmethoxy)-benzonitrile] was tested, and the IC50 [1, 3] was 108 nM and the IC50 [2] was over 1000 nM.
COc1ccccc1COc1ccc(C#N)c(Cl)c1 [Example 67, 2-Chloro-4-(2-methoxy-benzyloxy)-benzonitrile] gave an IC50 ([1]; AR Binding IC50, hAR extract) of 99 nM and an IC50 [2] of 166 nM.
In the case of CCCCC(Oc1ccc(C#N)c(C(F)(F)F)c1)c1ccccn1 (centres unmarked) [Example 84, 4-(1-Pyridin-2-yl-pentyloxy)-2-trifluoromethyl-benzonitrile], the IC50 [1, 3] is reported as 161 nM and the IC50 [2] is reported as over 667 nM.

From patent US20090170886A1 (Pfizer Inc, priority 2005, published 2009)
